Common to all, as to type: cell-based
The test system of series [1] is human red blood cells (hRBC). Particulars: red cells of human, 1 h, 200 μg/mL. Summed up:
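Percent hemolysis derived from OD540 of supernatants relative to full lysis by 2.5% Triton X-100 (PBS baseline). Washed fresh human erythrocytes (20% v/v) were exposed to 200 μg/mL peptide for 1 h at 37 °C with shaking.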

Series [2] relates to Escherichia coli ATCC 25922. Particulars: ATCC 25922. Summed up: (§1)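 The MIC is the lowest peptide concentration, in μg/mL, with no visible growth after 18-20 h incubation at 35 °C. Serial two-fold peptide dilutions in water with 0.002% P-80 final were added to bacteria in cation-adjusted MHII broth, about 5×10^5 CFU/mL, following modified CLSI microdilution.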
Series [3] relates to Escherichia coli MCR-1 Af 45. Conditions: MCR-1 Af 45. In a few lines:
as §1

Series [4] concerns Klebsiella pneumoniae SSI3010. Conditions: SSI3010. In a few lines: as §1

Where a SMILES comes first, the peptide text is derived from it. Bridges are numbered along the chain shown (N, C = ends). [ ]: non-standard residue; d: D form. dDab(iPr) = CC(C)NCC[C@@H](N)C(=O)O; Hyp = O=C(O)[C@@H]1C[C@@H](O)CN1; dCit = NC(=O)NCCC[C@@H](N)C(=O)O; Cit = NC(=O)NCCC[C@H](N)C(=O)O; Pen = CC(C)(S)[C@H](N)C(=O)O; dDab = NCC[C@@H](N)C(=O)O; Dab = NCC[C@H](N)C(=O)O

In the case of `CC[C@H](C)[C@H](NC(=O)[C@@H]1C[C@@H](O)CN1C(=O)[C@@H](N)C(C)C)C(=O)N[C@@H]1C(=O)N[C@@H](Cc2ccc(O)cc2)C(=O)N[C@@H](CO)C(=O)N[C@@H](CC(N)=O)C(=O)N[C@@H](CCCNC(=N)N)C(=O)N[C@@H](CCN)C(=O)N[C@@H]([C@@H](C)O)C(=O)N[C@H](CCCNC(=N)N)C(=O)N[C@@H](CCCCN)C(=O)N[C@@H](CCN)C(=O)N[C@@H](CCN)C(=O)N[C@H](C(=O)N[C@@H](Cc2ccc(O)cc2)C(=O)O)CSSC1(C)C` [Example 36, Val-Hyp-Ile-Pen-Tyr-Ser-Asn-Arg-Dab-Thr-^DArg-Lys-Dab-Dab-Cys-Tyr] (H-V[Hyp]I[Pen]YSNR[Dab]T[dR]K[Dab][Dab]CY-OH; disulfide 4-15), the “Hemolysis at 0.2 g/L” value in series [1] is recorded as less than 1%. Moreover, the “Escherichia coli ATCC 25922 MIC” value in series [2] was 0.125 µg/mL. Also, the “Escherichia coli MCR-1 Af45 MIC” value in series [3] is 0.125 µg/mL. Besides, the “Klebsiella pneumoniae SSI3010 MIC” value in series [4] worked out at 0.125 µg/mL.

Regarding `CC[C@H](C)[C@H](NC(=O)[C@@H]1C[C@@H](O)CN1C(=O)[C@@H](N)C(C)C)C(=O)N[C@@H]1C(=O)N[C@@H](Cc2ccc(O)cc2)C(=O)N[C@@H](CO)C(=O)N[C@@H](CC(N)=O)C(=O)N[C@@H](CCCNC(=N)N)C(=O)N[C@@H](CCN)C(=O)N[C@@H]([C@@H](C)O)C(=O)N[C@H](CCCNC(N)=O)C(=O)N[C@@H](CCCCN)C(=O)N[C@@H](CCN)C(=O)N[C@@H](CCN)C(=O)N[C@H](C(=O)N[C@@H](Cc2ccc(O)cc2)C(=O)O)CSSC1(C)C` [Example 37, Val-Hyp-Ile-Pen-Tyr-Ser-Asn-Arg-Dab-Thr-^DCit-Lys-Dab-Dab-Cys-Tyr] (H-V[Hyp]I[Pen]YSNR[Dab]T[dCit]K[Dab][Dab]CY-OH; disulfide 4-15), the “Hemolysis at 0.2 g/L” value in series [1] is recorded as less than 1%. In addition, the “Escherichia coli ATCC 25922 MIC” value in series [2] was determined as 0.5 µg/mL. Also, the “Escherichia coli MCR-1 Af45 MIC” value in series [3] is 0.5 µg/mL. The “Klebsiella pneumoniae SSI3010 MIC” value in series [4] was 0.5 µg/mL.

Turning to `CC[C@H](C)[C@H](NC(=O)[C@@H]1C[C@@H](O)CN1C(=O)[C@@H](N)C(C)C)C(=O)N[C@@H]1C(=O)N[C@@H](Cc2ccc(O)cc2)C(=O)N[C@@H](CO)C(=O)N[C@@H](CC(N)=O)C(=O)N[C@@H](CCCNC(=N)N)C(=O)N[C@@H](CCN)C(=O)N[C@@H]([C@@H](C)O)C(=O)N[C@H](CCNC(C)C)C(=O)N[C@@H](CCCCN)C(=O)N[C@@H](CCN)C(=O)N[C@@H](CCN)C(=O)N[C@H](C(=O)N[C@@H](Cc2ccc(O)cc2)C(=O)O)CSSC1(C)C` [Example 38, Val-Hyp-Ile-Pen-Tyr-Ser-Asn-Arg-Dab-Thr-^DDab(iPr)-Lys-Dab-Dab-Cys-Tyr] (H-V[Hyp]I[Pen]YSNR[Dab]T[dDab(iPr)]K[Dab][Dab]CY-OH; disulfide 4-15), in series [1], the “Hemolysis at 0.2 g/L” value is recorded as less than 1%. Moreover, in series [2], the “Escherichia coli ATCC 25922 MIC” value was 0.125 µg/mL. The “Escherichia coli MCR-1 Af45 MIC” value in series [3] came out at 0.125 µg/mL. Also, the “Klebsiella pneumoniae SSI3010 MIC” value in series [4] was found to be 0.5 µg/mL.

Take `CC[C@H](C)[C@H](NC(=O)[C@@H]1C[C@@H](O)CN1C(=O)[C@@H](N)C(C)C)C(=O)N[C@@H]1C(=O)N[C@@H](Cc2ccc(O)cc2)C(=O)N[C@@H](CO)C(=O)N[C@@H](CC(N)=O)C(=O)N[C@@H](CCCNC(=N)N)C(=O)N[C@@H](CCN)C(=O)N[C@@H]([C@@H](C)O)C(=O)N[C@H](CCN)C(=O)N[C@@H](C)C(=O)N[C@@H](CCN)C(=O)N[C@@H](CCN)C(=O)N[C@H](C(=O)N[C@@H](Cc2ccc(O)cc2)C(=O)O)CSSC1(C)C` [Example 39, Val-Hyp-Ile-Pen-Tyr-Ser-Asn-Arg-Dab-Thr-^DDab-Ala-Dab-Dab-Cys-Tyr] (H-V[Hyp]I[Pen]YSNR[Dab]T[dDab]A[Dab][Dab]CY-OH; disulfide 4-15): the “Hemolysis at 0.2 g/L” value in series [1] is recorded as less than 1%. Besides, the “Escherichia coli ATCC 25922 MIC” value in series [2] was determined as 0.25 µg/mL. Besides, the “Escherichia coli MCR-1 Af45 MIC” value in series [3] came to 0.25 µg/mL. Moreover, the “Klebsiella pneumoniae SSI3010 MIC” value in series [4] was 0.5 µg/mL.

Regarding `CC[C@H](C)[C@H](NC(=O)[C@@H]1C[C@@H](O)CN1C(=O)[C@@H](N)C(C)C)C(=O)N[C@@H]1C(=O)N[C@@H](Cc2ccc(O)cc2)C(=O)N[C@@H](CO)C(=O)N[C@@H](CC(N)=O)C(=O)N[C@@H](CCCNC(=N)N)C(=O)N[C@@H](CCN)C(=O)N[C@@H]([C@@H](C)O)C(=O)N[C@H](CCN)C(=O)N[C@@H](CCCNC(N)=O)C(=O)N[C@@H](CCN)C(=O)N[C@@H](CCN)C(=O)N[C@H](C(=O)N[C@@H](Cc2ccc(O)cc2)C(=O)O)CSSC1(C)C` [Example 40, Val-Hyp-Ile-Pen-Tyr-Ser-Asn-Arg-Dab-Thr-^DDab-Cit-Dab-Dab-Cys-Tyr] (H-V[Hyp]I[Pen]YSNR[Dab]T[dDab][Cit][Dab][Dab]CY-OH; disulfide 4-15), the “Hemolysis at 0.2 g/L” value in series [1] is reported as less than 1%. For the same compound, in series [2], the “Escherichia coli ATCC 25922 MIC” value worked out at 0.25 µg/mL. Besides, the “Escherichia coli MCR-1 Af45 MIC” value in series [3] was 0.125 µg/mL. The “Klebsiella pneumoniae SSI3010 MIC” value in series [4] was 0.5 µg/mL.

For the compound `CC[C@H](C)[C@H](NC(=O)[C@@H]1C[C@@H](O)CN1C(=O)[C@@H](N)C(C)C)C(=O)N[C@@H]1C(=O)N[C@@H](Cc2ccc(O)cc2)C(=O)N[C@@H](CO)C(=O)N[C@@H](CC(N)=O)C(=O)N[C@@H](CCCNC(=N)N)C(=O)N[C@@H](CCN)C(=O)N[C@@H]([C@@H](C)O)C(=O)N[C@H](CCN)C(=O)N[C@@H](Cc2ccc(O)cc2)C(=O)N[C@@H](CCN)C(=O)N[C@@H](CCN)C(=O)N[C@H](C(=O)N[C@@H](Cc2ccc(O)cc2)C(=O)O)CSSC1(C)C` [Example 41, Val-Hyp-Ile-Pen-Tyr-Ser-Asn-Arg-Dab-Thr-^DDab-Tyr-Dab-Dab-Cys-Tyr] (H-V[Hyp]I[Pen]YSNR[Dab]T[dDab]Y[Dab][Dab]CY-OH; disulfide 4-15), the “Hemolysis at 0.2 g/L” value in series [1] is less than 1%. In addition, the “Escherichia coli ATCC 25922 MIC” value in series [2] was found to be 0.125 µg/mL. In addition, the “Escherichia coli MCR-1 Af45 MIC” value in series [3] turned out to be 0.125 µg/mL. The “Klebsiella pneumoniae SSI3010 MIC” value in series [4] turned out to be 0.25 µg/mL.

As for `CC[C@H](C)[C@@H]1NC(=O)[C@@H](CCN)NC(=O)[C@H]([C@@H](C)O)NC(=O)[C@H](CCN)NC(=O)[C@H](CCCNC(=N)N)NC(=O)[C@H](CC(N)=O)NC(=O)[C@H](CO)NC(=O)[C@H](Cc2ccc(O)cc2)NC(=O)[C@@H](NC(=O)[C@@H](NC(=O)[C@@H]2C[C@@H](O)CN2C(=O)[C@@H](N)C(C)C)[C@@H](C)CC)C(C)(C)SSC[C@@H](C(=O)N[C@@H](Cc2ccc(O)cc2)C(=O)O)NC(=O)[C@H](CCN)NC(=O)[C@H](CCN)NC1=O` [Example 42, Val-Hyp-Ile-Pen-Tyr-Ser-Asn-Arg-Dab-Thr-^DDab-Ile-Dab-Dab-Cys-Tyr] (H-V[Hyp]I[Pen]YSNR[Dab]T[dDab]I[Dab][Dab]CY-OH; disulfide 4-15), in series [1], the “Hemolysis at 0.2 g/L” value was less than 1%. For the same compound, the “Escherichia coli ATCC 25922 MIC” value in series [2] was determined as 0.125 µg/mL. The “Escherichia coli MCR-1 Af45 MIC” value in series [3] stood at 0.125 µg/mL. In series [4], the “Klebsiella pneumoniae SSI3010 MIC” value amounted to 0.25 µg/mL.

Consider `CC[C@H](C)[C@H](NC(=O)[C@@H]1C[C@@H](O)CN1C(=O)[C@@H](N)C(C)C)C(=O)N[C@@H]1C(=O)N[C@@H](Cc2ccc(O)cc2)C(=O)N[C@@H](CO)C(=O)N[C@@H](CC(N)=O)C(=O)N[C@@H](CCCNC(=N)N)C(=O)N[C@@H](CCN)C(=O)N[C@@H]([C@@H](C)O)C(=O)N[C@H](CCN)C(=O)N[C@@H](CC(N)=O)C(=O)N[C@@H](CCN)C(=O)N[C@@H](CCN)C(=O)N[C@H](C(=O)N[C@@H](Cc2ccc(O)cc2)C(=O)O)CSSC1(C)C` [Example 43, Val-Hyp-Ile-Pen-Tyr-Ser-Asn-Arg-Dab-Thr-^DDab-Asn-Dab-Dab-Cys-Tyr] (H-V[Hyp]I[Pen]YSNR[Dab]T[dDab]N[Dab][Dab]CY-OH; disulfide 4-15), for which, in series [1], the “Hemolysis at 0.2 g/L” value is on record as less than 1%. Also, the “Escherichia coli ATCC 25922 MIC” value in series [2] came to 0.25 µg/mL. Besides, the “Escherichia coli MCR-1 Af45 MIC” value in series [3] is 0.25 µg/mL. Further, the “Klebsiella pneumoniae SSI3010 MIC” value in series [4] was 0.5 µg/mL.

Consider `CC[C@H](C)[C@H](NC(=O)[C@@H]1C[C@@H](O)CN1C(=O)[C@@H](N)C(C)C)C(=O)N[C@@H]1C(=O)N[C@@H](Cc2ccc(O)cc2)C(=O)N[C@@H](CO)C(=O)N[C@@H](CC(N)=O)C(=O)N[C@@H](CCCNC(=N)N)C(=O)N[C@@H](CCN)C(=O)N[C@@H]([C@@H](C)O)C(=O)N[C@H](CCN)C(=O)N[C@@H](CO)C(=O)N[C@@H](CCN)C(=O)N[C@@H](CCN)C(=O)N[C@H](C(=O)N[C@@H](Cc2ccc(O)cc2)C(=O)O)CSSC1(C)C` [Example 44, Val-Hyp-Ile-Pen-Tyr-Ser-Asn-Arg-Dab-Thr-^DDab-Ser-Dab-Dab-Cys-Tyr] (H-V[Hyp]I[Pen]YSNR[Dab]T[dDab]S[Dab][Dab]CY-OH; disulfide 4-15), for which, in series [1], the “Hemolysis at 0.2 g/L” value is on record as less than 1%. The “Escherichia coli ATCC 25922 MIC” value in series [2] was found to be 0.25 µg/mL. In addition, the “Escherichia coli MCR-1 Af45 MIC” value in series [3] amounted to 0.125 µg/mL. Besides, the “Klebsiella pneumoniae SSI3010 MIC” value in series [4] is 0.25 µg/mL.

`CC[C@H](C)[C@H](NC(=O)[C@@H]1C[C@@H](O)CN1C(=O)[C@@H](N)C(C)C)C(=O)N[C@@H]1C(=O)N[C@@H](Cc2ccc(O)cc2)C(=O)N[C@@H](CCN)C(=O)N[C@@H](CC(N)=O)C(=O)N[C@@H](CCCNC(=N)N)C(=O)N[C@@H](CCN)C(=O)N[C@@H]([C@@H](C)O)C(=O)N[C@H](CCN)C(=O)N[C@@H](CCCCN)C(=O)N[C@@H](CO)C(=O)N[C@@H](CCN)C(=O)N[C@H](C(=O)N[C@@H](Cc2ccc(O)cc2)C(=O)O)CSSC1(C)C` [Example 45, Val-Hyp-Ile-Pen-Tyr-Dab-Asn-Arg-Dab-Thr-^DDab-Lys-Ser-Dab-Cys-Tyr] (H-V[Hyp]I[Pen]Y[Dab]NR[Dab]T[dDab]KS[Dab]CY-OH; disulfide 4-15): the “Hemolysis at 0.2 g/L” value in series [1] was less than 1%. Moreover, the “Escherichia coli ATCC 25922 MIC” value in series [2] was 0.125 µg/mL. Besides, the “Escherichia coli MCR-1 Af45 MIC” value in series [3] was determined as 0.125 µg/mL. The “Klebsiella pneumoniae SSI3010 MIC” value in series [4] is 0.0625 µg/mL.

Source of the values: US20240336654A1, “ANTIMICROBIAL PEPTIDOMIMETICS” (SPEXIS AG, priority 2021, published 2024).
